Key:
[1] = molecular target: T1, human α1G T-type channels (Homo sapiens, UniProt O43497); test: T-type calcium channel block, whole cell patch clamp (α1G); assay type: cell-based; settings: HEK cells stably expressing human α1G; mainly non-inactivated protocol; values above 10 μM represented as 10 μM, values below 0.30 μM represented as 0.30 μM
T1 construct: expressed in transfected cells; host or cells: HEK 293
Experimental: (§1) T-type calcium channel blocking activity was assayed in human embryonic kidney cells, HEK 293, stably transfected with the T-type calcium channel subunits. Briefly, cells were cultured in Dulbecco's modified eagle medium (DMEM) supplemented with 10% fetal bovine serum, 200 U/ml penicillin and 0.2 mg/ml streptomycin at 37° C. with 5% CO2. At 85% confluency cells were split with 0.25% trypsin/1 mM EDTA and plated at 10% confluency on glass coverslips. At 12 hours the medium was replaced and the cells stably transfected using a standard calcium phosphate protocol and the appropriate calcium channel cDNA's. Fresh DMEM was supplied and the cells transferred to 28° C./5% CO2. Cells were incubated for 1 to 2 days prior to whole cell recording.
(§2) Standard patch-clamp techniques were employed to identify blockers of T-type currents. Briefly, previously described HEK cell lines stably expressing human α1G, α1H and α1I T-type channels were used for all the recordings (passage #: 4-20, 37° C., 5% CO2). Whole cell patch clamp experiments were performed using an Axopatch 200B amplifier (Axon Instruments, Burlingame, Calif.) linked to a personal computer equipped with pCLAMP software. Data were analyzed using Clampfit (Axon Instruments) and SigmaPlot 4.0 (Jandel Scientific). To obtain T-type currents, plastic dishes containing semi-confluent cells were positioned on the stage of a ZEISS AXIOVERT S100 microscope after replacing the culture medium with external solution (see below). Whole-cell patches were obtained using pipettes (borosilicate glass with filament, O.D.: 1.5 mm, I.D.: 0.86 mm, 10 cm length), fabricated on a SUTTER P-97 puller with resistance values of ˜5 MΩ (see below for internal solution).
(§3) In the non-inactivating protocol, the holding potential is set at −110 mV and with a pre-pulse at −100 mV for 1 second prior to the test pulse at −40 mV for 50 ms. In the inactivation protocol, the pre-pulse is at approximately −85 mV for 1 second, which inactivates about 15% of the T-type channels.
(§4) Test compounds were dissolved in external solution, 0.1-0.01% DMSO. After 10 min rest, they were applied by gravity close to the cell using a WPI microfil tubing. The “non-inactivated” pre-pulse was used to examine the resting block of a compound. The “inactivated” protocol was employed to study voltage-dependent block. However, the initial data shown below were mainly obtained using the non-inactivated protocol only. . IC50 values are shown for various compounds of the invention in Table 4 for the drug of interest. Values are shown in μM and values above 10 μM are simply represented as 10 μM.

[2] = molecular target: T2, human α1H T-type channels (Homo sapiens, UniProt O95180); test: T-type calcium channel block, whole cell patch clamp (α1H); assay type: cell-based; settings: HEK cells stably expressing human α1H; mainly non-inactivated protocol; values above 10 μM represented as 10 μM
T2 construct: expressed in transfected cells; host or cells: HEK 293
T2 sequence (O95180 whole entry): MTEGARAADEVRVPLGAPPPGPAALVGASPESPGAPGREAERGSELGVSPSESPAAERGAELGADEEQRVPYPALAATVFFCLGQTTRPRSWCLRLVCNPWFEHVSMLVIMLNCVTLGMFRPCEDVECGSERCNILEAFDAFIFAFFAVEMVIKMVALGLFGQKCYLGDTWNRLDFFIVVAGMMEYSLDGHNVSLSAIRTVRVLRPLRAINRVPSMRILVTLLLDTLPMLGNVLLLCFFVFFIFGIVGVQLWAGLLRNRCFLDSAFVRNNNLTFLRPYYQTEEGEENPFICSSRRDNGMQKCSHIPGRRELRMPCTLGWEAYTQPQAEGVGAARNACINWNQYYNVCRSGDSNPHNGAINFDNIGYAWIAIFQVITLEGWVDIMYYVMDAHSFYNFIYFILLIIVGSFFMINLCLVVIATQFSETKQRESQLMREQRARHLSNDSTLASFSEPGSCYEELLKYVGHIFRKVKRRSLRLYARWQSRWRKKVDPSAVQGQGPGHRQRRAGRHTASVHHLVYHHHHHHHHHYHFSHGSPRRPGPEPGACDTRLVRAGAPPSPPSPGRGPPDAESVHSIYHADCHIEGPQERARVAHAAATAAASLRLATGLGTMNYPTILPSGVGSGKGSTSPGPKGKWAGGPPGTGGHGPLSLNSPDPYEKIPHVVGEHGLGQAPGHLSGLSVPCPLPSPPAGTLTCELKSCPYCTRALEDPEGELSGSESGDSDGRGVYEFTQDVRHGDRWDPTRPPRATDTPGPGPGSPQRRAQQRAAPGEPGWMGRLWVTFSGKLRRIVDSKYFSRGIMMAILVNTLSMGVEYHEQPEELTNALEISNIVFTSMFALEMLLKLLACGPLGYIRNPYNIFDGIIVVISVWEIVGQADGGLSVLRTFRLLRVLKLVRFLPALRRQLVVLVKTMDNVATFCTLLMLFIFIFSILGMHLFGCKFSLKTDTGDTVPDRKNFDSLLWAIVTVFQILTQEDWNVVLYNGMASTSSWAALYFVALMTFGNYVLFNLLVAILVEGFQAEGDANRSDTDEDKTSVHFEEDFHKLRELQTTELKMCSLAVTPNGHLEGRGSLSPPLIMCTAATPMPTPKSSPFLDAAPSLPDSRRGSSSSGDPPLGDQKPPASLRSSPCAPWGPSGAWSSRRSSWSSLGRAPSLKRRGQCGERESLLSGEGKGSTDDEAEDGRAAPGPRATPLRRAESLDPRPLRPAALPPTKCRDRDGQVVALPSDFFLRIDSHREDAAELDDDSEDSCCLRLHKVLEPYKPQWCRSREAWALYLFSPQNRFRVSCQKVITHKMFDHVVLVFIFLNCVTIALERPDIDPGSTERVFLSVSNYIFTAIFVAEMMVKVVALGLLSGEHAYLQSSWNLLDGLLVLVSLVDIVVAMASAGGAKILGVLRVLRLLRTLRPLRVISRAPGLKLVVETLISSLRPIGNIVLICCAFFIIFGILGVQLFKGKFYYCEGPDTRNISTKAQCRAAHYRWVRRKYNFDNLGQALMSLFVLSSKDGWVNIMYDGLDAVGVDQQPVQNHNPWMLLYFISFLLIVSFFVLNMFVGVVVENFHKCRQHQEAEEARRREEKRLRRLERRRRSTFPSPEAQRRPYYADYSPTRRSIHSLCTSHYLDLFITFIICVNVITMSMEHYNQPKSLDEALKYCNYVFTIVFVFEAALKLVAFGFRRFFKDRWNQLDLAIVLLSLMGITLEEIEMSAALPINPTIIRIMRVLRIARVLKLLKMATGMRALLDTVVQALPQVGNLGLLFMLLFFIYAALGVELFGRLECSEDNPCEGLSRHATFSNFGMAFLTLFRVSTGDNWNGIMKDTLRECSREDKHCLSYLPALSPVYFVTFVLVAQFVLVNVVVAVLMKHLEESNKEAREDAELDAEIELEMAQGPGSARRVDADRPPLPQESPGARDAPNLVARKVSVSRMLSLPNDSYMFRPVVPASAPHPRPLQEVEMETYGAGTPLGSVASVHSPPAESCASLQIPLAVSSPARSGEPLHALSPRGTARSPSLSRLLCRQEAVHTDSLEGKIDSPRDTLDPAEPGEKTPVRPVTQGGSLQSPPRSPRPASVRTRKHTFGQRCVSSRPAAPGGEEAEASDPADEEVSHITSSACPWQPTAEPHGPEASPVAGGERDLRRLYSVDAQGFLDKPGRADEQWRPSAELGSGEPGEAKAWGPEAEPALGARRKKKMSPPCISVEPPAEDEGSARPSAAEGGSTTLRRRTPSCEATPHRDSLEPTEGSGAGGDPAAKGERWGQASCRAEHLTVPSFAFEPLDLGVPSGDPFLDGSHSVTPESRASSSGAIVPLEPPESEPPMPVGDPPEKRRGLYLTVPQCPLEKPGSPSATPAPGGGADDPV
Experimental: as §1, §2, §3, §4

T1 sequence (O43497 whole entry): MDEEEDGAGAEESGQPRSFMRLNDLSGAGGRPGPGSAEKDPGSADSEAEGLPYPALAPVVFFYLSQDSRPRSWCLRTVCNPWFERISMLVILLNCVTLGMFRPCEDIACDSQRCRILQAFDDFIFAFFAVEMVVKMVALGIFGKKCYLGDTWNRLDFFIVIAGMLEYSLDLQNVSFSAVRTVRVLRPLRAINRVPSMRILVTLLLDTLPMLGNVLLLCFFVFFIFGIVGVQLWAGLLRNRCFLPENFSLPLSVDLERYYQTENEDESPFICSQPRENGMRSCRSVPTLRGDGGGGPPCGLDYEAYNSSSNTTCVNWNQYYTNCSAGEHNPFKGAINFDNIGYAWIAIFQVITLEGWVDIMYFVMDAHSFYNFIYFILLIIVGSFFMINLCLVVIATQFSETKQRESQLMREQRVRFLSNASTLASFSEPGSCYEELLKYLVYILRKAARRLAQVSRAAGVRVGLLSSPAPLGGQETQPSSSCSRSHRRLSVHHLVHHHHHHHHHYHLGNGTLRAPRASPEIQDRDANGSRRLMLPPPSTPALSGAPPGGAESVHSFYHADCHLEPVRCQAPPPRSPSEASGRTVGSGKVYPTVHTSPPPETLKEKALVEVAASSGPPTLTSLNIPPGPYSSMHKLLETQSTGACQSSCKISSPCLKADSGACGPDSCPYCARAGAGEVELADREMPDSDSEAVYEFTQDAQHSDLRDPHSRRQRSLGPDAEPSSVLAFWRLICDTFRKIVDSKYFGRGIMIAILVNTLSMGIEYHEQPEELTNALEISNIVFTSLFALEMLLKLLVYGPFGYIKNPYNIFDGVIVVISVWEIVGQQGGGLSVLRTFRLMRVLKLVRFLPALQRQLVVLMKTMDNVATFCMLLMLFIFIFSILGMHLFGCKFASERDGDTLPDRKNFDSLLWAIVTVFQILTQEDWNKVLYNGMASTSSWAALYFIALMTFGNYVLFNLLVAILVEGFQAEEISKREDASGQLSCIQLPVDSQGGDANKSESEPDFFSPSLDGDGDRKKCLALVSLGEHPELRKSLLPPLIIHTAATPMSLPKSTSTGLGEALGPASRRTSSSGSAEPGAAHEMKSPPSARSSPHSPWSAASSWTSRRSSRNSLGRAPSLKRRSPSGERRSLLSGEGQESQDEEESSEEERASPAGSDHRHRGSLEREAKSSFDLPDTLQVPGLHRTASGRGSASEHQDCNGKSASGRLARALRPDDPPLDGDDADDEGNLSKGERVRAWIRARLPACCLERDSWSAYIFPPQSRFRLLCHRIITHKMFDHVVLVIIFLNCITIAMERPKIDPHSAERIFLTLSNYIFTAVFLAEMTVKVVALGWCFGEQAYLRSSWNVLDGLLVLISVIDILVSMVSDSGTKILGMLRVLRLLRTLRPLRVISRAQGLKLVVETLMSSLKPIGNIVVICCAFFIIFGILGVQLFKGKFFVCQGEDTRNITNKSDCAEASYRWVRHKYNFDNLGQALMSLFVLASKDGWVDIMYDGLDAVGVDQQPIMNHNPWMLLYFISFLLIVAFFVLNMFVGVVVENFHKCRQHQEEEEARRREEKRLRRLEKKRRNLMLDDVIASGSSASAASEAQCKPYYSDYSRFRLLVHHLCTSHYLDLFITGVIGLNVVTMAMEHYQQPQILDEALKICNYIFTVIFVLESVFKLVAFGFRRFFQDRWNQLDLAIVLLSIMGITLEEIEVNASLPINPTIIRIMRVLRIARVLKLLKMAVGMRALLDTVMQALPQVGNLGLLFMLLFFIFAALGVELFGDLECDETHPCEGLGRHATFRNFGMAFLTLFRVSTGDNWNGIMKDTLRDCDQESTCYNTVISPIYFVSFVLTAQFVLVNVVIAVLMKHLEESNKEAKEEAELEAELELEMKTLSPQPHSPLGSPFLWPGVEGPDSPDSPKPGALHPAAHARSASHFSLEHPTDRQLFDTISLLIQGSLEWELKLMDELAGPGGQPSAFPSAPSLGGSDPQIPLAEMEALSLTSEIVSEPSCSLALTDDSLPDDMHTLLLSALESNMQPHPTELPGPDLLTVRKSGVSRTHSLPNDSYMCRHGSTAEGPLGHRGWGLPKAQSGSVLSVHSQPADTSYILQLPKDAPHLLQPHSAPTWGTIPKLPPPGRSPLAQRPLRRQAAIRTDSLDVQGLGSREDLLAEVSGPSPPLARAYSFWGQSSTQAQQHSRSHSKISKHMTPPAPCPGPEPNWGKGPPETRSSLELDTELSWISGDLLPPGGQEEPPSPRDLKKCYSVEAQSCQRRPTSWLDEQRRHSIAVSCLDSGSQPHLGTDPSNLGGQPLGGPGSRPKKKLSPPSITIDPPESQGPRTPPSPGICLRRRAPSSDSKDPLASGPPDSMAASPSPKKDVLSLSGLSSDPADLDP

Compound | IC50 [1] | IC50 [2]
O=C(C[C@H]1CC[C@H](NC(=O)[C@@H]2C[C@@H](c3ccccc3)CN2)CC1)Nc1cc(C(F)(F)F)cc(C(F)(F)F)c1 [Compound 123, (2S,4S)-N-(trans-4-(2-(3,5-bis(trifluoromethyl)phenylamino)-2-oxoethyl)cyclohexyl)-4-phenylpyrrolidine-2-carboxamide] | ≤ 300 nM | 2950 nM
CC1(NC(=O)CN[C@H]2CC[C@@H](CNC(=O)c3cc(F)cc(Cl)c3)CC2)CCC1 [Compound 193, 3-chloro-5-fluoro-N-(((1s,4s)-4-(2-(1-methylcyclobutylamino)-2-oxoethylamino)cyclohexyl)methyl)benzamide] | 720 nM | 230 nM
O=C(C[C@H]1CC[C@@H](NC(=O)[C@@H]2CCCN2)CC1)Nc1cc(C(F)(F)F)cc(C(F)(F)F)c1 [Compound 143, (S)-N-(cis-4-(2-(3,5-bis(trifluoromethyl)phenylamino)-2-oxoethyl)cyclohexyl)pyrrolidine-2-carboxamide] | 1900 nM | 9940 nM
CC(C)(C)NC(=O)CN[C@H]1CC[C@H](CNC(=O)c2cc(Cl)cc(Cl)c2)CC1 [Compound 191, N-(((1r,4r)-4-(2-(tert-butylamino)-2-oxoethylamino)cyclohexyl)methyl)-3,5-dichlorobenzamide] | 530 nM | 180 nM
CC(C)(C)NC(=O)CN[C@H]1CC[C@@H](CNC(=O)c2cc(Cl)cc(Cl)c2)CC1 [Compound 187, N-(((1s,4s)-4-(2-(tert-butylamino)-2-oxoethylamino)cyclohexyl)methyl)-3,5-dichlorobenzamide] | ≤ 300 nM | 60 nM
O=C(CNC[C@H]1CC[C@H](NC(=O)c2cc(C(F)(F)F)cc(C(F)(F)F)c2)CC1)Nc1ccccn1 [Compound 96, N-(trans-4-((2-oxo-2-(pyridin-2-ylamino)ethylamino)methyl)cyclohexyl)-3,5-bis(trifluoromethyl)benzamide] | 540 nM | 1040 nM
Cc1ccc(-c2csc(NC(=O)C[C@H]3CC[C@@H](NC(=O)C4(c5ccccc5)CCNCC4)CC3)n2)cc1 [Compound 132, N-(cis-4-(2-oxo-2-(4-p-tolylthiazol-2-ylamino)ethyl)cyclohexyl)-4-phenylpiperidine-4-carboxamide] | 1090 nM | ≥ 10000 nM
COC1CCC(N(C)C(=O)CN[C@H]2CC[C@H](CNC(=O)c3cc(C(F)(F)F)cc(C(F)(F)F)c3)CC2)CC1 (stereo partly drawn) [Compound 65, N-((trans-4-(2-((4-methoxycyclohexyl)(methyl)amino)-2-oxoethylamino)cyclohexyl)methyl)-3,5-bis(trifluoromethyl)benzamide] | 8020 nM | 7360 nM
CC(C)(C)NC(=O)CN[C@H]1CC[C@@H](CNC(=O)c2cccc(OC(F)(F)F)c2)CC1 [Compound 185, N-(((1s,4s)-4-(2-(tert-butylamino)-2-oxoethylamino)cyclohexyl)methyl)-3-(trifluoromethoxy)benzamide] | 790 nM | 330 nM
COc1cc(OC)cc(C(=O)NC[C@H]2CC[C@@H](NCC(=O)NC(C)(C)C)CC2)c1 [Compound 181, N-(((1s,4s)-4-(2-(tert-butylamino)-2-oxoethylamino)cyclohexyl)methyl)-3,5-dimethoxybenzamide] | 3650 nM | 330 nM
CN(C(=O)CN[C@H]1CC[C@@H](CNC(=O)c2cc(F)cc(Cl)c2)CC1)C1(C)CCC1 [Compound 213, 3-chloro-5-fluoro-N-(((1s,4s)-4-(2-(methyl(1-methylcyclobutyl)amino)-2-oxoethylamino)cyclohexyl)methyl)benzamide] | 1030 nM | 330 nM
Cc1ccc(-c2csc(NC(=O)C[C@H]3CC[C@@H](NCC4(NC(=O)OC(C)(C)C)CCCC4)CC3)n2)cc1 [Compound 37] | – | 5370 nM
Cc1ccc(-c2csc(NC(=O)C[C@H]3CC[C@@H](NCC(C)(C)NC(=O)OC(C)(C)C)CC3)n2)cc1 [Compound 38, tert-butyl 2-methyl-1-(cis-4-(2-oxo-2-(4-p-tolylthiazol-2-ylamino)ethyl)cyclohexylamino)propan-2-ylcarbamate] | – | 7930 nM
COc1ccc(CN[C@H]2CC[C@@H](CC(=O)Nc3nc(-c4ccc(C)cc4)cs3)CC2)c(O)c1 [Compound 36, 2-(cis-4-(2-hydroxy-4-methoxybenzylamino)cyclohexyl)-N-(4-p-tolylthiazol-2-yl)acetamide] | – | ≥ 10000 nM

The next lines start with the values.

IC50 [1] | IC50 [2] | Compound
≤ 300 nM | 430 nM | CCC(CC)NC(=O)CN[C@H]1CC[C@H](CNC(=O)c2cc(C(F)(F)F)cc(C(F)(F)F)c2)CC1 [Compound 57, N-((trans-4-(2-oxo-2-(pentan-3-ylamino)ethylamino)cyclohexyl)methyl)-3,5-bis(trifluoromethyl)benzamide]
470 nM | 1020 nM | CC(C)(C)C(O)CN[C@H]1CC[C@H](CNC(=O)c2cc(C(F)(F)F)cc(C(F)(F)F)c2)CC1 (stereo partly drawn) [Compound 3, N-((trans-4-(2-hydroxy-3,3-dimethylbutylamino)cyclohexyl)methyl)-3,5-bis(trifluoromethyl)benzamide]
330 nM | 210 nM | CC(C)CNC(=O)CN[C@H]1CC[C@@H](CNC(=O)c2cc(C(F)(F)F)cc(C(F)(F)F)c2)CC1 [Compound 70, N-((cis-4-(2-(isobutylamino)-2-oxoethylamino)cyclohexyl)methyl)-3,5-bis(trifluoromethyl)benzamide]
1150 nM | 820 nM | CC(C)(C)c1nc(CN[C@H]2CC[C@@H](CNC(=O)c3cc(C(F)(F)F)cc(C(F)(F)F)c3)CC2)no1 [Compound 51, N-((cis-4-((5-tert-butyl-1,2,4-oxadiazol-3-yl)methylamino)cyclohexyl)methyl)-3,5-bis(trifluoromethyl)benzamide]
3350 nM | 470 nM | COc1cc(F)cc(C(=O)NC[C@H]2CC[C@@H](NCC(=O)N(C)C(C)(C)C)CC2)c1 [Compound 200, N-(((1s,4s)-4-(2-(tert-butyl(methyl)amino)-2-oxoethylamino)cyclohexyl)methyl)-3-fluoro-5-methoxybenzamide]
470 nM | 320 nM | COc1ccccc1CN[C@H]1CC[C@@H](CNC(=O)c2cc(C(F)(F)F)cc(C(F)(F)F)c2)CC1 [Compound 10, N-((cis-4-(2-methoxybenzylamino)cyclohexyl)methyl)-3,5-bis(trifluoromethyl)benzamide]
3820 nM | 920 nM | COc1cc(F)cc(C(=O)NC[C@H]2CC[C@H](NCC(=O)NC3(C)CCC3)CC2)c1 [Compound 207, 3-fluoro-5-methoxy-N-(((1r,4r)-4-(2-(1-methylcyclobutylamino)-2-oxoethylamino)cyclohexyl)methyl)benzamide]
4280 nM | 1230 nM | Cc1cc(F)cc(C(=O)NC[C@H]2CC[C@@H](NCC(=O)NC(C)(C)C)CC2)c1 [Compound 188, N-(((1s,4s)-4-(2-(tert-butylamino)-2-oxoethylamino)cyclohexyl)methyl)-3-fluoro-5-methylbenzamide]
810 nM | 430 nM | CC(C)CNC(=O)CN[C@H]1CC[C@H](CNC(=O)c2cc(C(F)(F)F)cc(C(F)(F)F)c2)CC1 [Compound 75, N-((trans-4-(2-(isobutylamino)-2-oxoethylamino)cyclohexyl)methyl)-3,5-bis(trifluoromethyl)benzamide]
≤ 300 nM | 370 nM | CC(C)(C)NC(=O)CN[C@H]1CC[C@H](CNC(=O)c2cc(C(F)(F)F)cc(C(F)(F)F)c2)CC1 [Compound 55, N-((trans-4-(2-(tert-butylamino)-2-oxoethylamino)cyclohexyl)methyl)-3,5-bis(trifluoromethyl)benzamide]
– | 2080 nM | O=C(CC1CC1)NCCN[C@H]1CC[C@H](CNC(=O)c2cc(C(F)(F)F)cc(C(F)(F)F)c2)CC1 [Compound 103, N-((trans-4-(2-(2-cyclopropylacetamido)ethylamino)cyclohexyl)methyl)-3,5-bis(trifluoromethyl)benzamide]
– | 250 nM | Cc1cc(CN[C@H]2CC[C@@H](CNC(=O)c3cc(F)cc(C(F)(F)F)c3)CC2)cc(C)c1O [Compound 5, 3-fluoro-N-((cis-4-(4-hydroxy-3,5-dimethylbenzylamino)cyclohexyl)methyl)-5-(trifluoromethyl)benzamide]

Reference: US20090298834A1, “4-(AMINOMETHYL)CYCLOHEXANAMINE DERIVATIVES AS CALCIUM CHANNEL BLOCKERS” (priority 2008, published 2009)
